US4315023A, “1-Phenethylimidazole derivatives” (Westwood Pharmaceuticals, Inc., priority 1980, dated 1982)
Where a name gives a salt, the structure may show the parent alone.

Columns and labels:
Streptococcus pyogenes = assay: in vitro antibacterial activity (MIC), S. pyogenes; assay type: cell-based; conditions: 50% Nutrient Broth + 5% human serum
Staphylococcus aureus = assay: in vitro antibacterial activity (MIC), S. aureus; assay type: cell-based; conditions: Nutrient Broth
Streptococcus pneumoniae = assay: in vitro antibacterial activity (MIC), S. pneumoniae; assay type: cell-based; conditions: 50% Nutrient Broth + 5% human serum
Trichophyton quinekeanum = Trichophyton quinekeanum induced skin infection in guinea pigs; assay type: in vivo, male guinea pigs; conditions: Table I; percentage drug concentration giving 50% of the score of untreated control; topical ointment
Experimental: In the guinea pig skin infection test, Trichophyton quinekeanum was cultured on a YGP agar slant at 28° C. for 10 days. Spores were collected from the mycelial mat and suspended in Sabouraud broth containing 2% of Tween 80. Groups of 3 male guinea pigs weighing between 400-500 g were used for each dose of test compound. The flanks of the animals were depilated and injured with sandpaper. The injured area was inoculated and rubbed with a glass rod on day 0 with 0.2 ml of the spore suspension containing 10^8 CFU/ml. The test compound was combined with a 1:1 mixture of polyethylene glycol 400 and 4000, and 0.3 ml of the ointment was applied to the infected area on day 1, 3 and 5. Lesions were examined on day 7 and scored as follows: 0, normal; 1, erythema; 2, erythema with whitish area; 3, erythema and numerous whitish areas; 4, erythema with confluent scaling and whitish pateches. A compound showing a mean score of 1.5 or less was considered active.
In the following Table I the antifungal activity of the test compound is reported as the EC50 value, which is the percentage drug concentration giving 50% of the score of untreated control animals. The EC50 was calculated by the method of least squares (K. Brounlee: Statistical Theory and Methodology in Science and Engineering, pages 345-349, Wiley Press, New York, 1965). In Table II a more detailed comparison on the in vivo antifungal activities of compound 3a and the isomeric prior art compound 2 are shown together with the data for compound 3b.
Treatment: 5 applications (day 0 to 4) against candida vaginal infection
and 3 applications (day 1, 3 and 5) against trichophyton skin infection

Candida albicans = Candida albicans induced vaginal infection in mice; assay type: in vivo, female mice; conditions: Table I; percentage drug concentration giving 50% of the score of untreated control; intravaginal
Experimental: A majority of the compounds of formula 3 were evaluated together with the prior art compound of formula 2 in a Candida albicans induced vaginal infection in mice and a Trichophyton quinekeanum induced skin infection in guinea pigs. Sabouraud broth was inoculated with Candida albicans and the inoculum incubated for two days at 28° C. on a rotary shaker. Groups of four to five female mice weighing between 18-21 grams were infected intravaginally with a 0.01 ml portion of the cell suspension containing 10^8 cells/ml on day 0. The mice were treated subcutaneously with 0.5 mg of estradiol benzoate three days before and four days after infection. The test compounds were suspended in 1% carboxymethyl cellulose and 0.02 ml of the suspension was instilled intravaginally from day 0 (four hours after infection) to day 4 (5 applications). On day 7, vaginal exudate was taken by a thin glass rod and streaked on a YGP agar plate containing 100 mcg/ml of chloramphenicol. The plate was incubated for two days at 28° C. […] In the following Table I the antifungal activity of the test compound is reported as the EC50 value, which is the percentage drug concentration giving 50% of the score of untreated control animals. The EC50 was calculated by the method of least squares (K. Brounlee: Statistical Theory and Methodology in Science and Engineering, pages 345-349, Wiley Press, New York, 1965). In Table II a more detailed comparison on the in vivo antifungal activities of compound 3a and the isomeric prior art compound 2 are shown together with the data for compound 3b.

S. faecalis = assay: in vitro antibacterial activity (MIC), S. faecalis; assay type: cell-based, Streptococcus faecalis; conditions: Enterococcus faecalis; Nutrient Broth

| Compound | MIC (Streptococcus pyogenes) | MIC (Staphylococcus aureus; Strain A) | MIC (Staphylococcus aureus; Strain B) | MIC (Staphylococcus aureus; Strain C) | MIC (Streptococcus pneumoniae) | EC50, Trichophyton Skin Infection (Trichophyton quinekeanum) | EC50, Candida Vaginal Infection (Candida albicans) | MIC (S. faecalis) |
| --- | --- | --- | --- | --- | --- | --- | --- | --- |
| Clc1ccc(C(Cn2ccnc2)SCSCc2c(Cl)cccc2Cl)c(Cl)c1 (stereo not drawn) [Compound 3e, 1-[2-(2,6-Dichlorobenzylthiomethylthio)-2-(2,4-dichlorophenyl)ethyl]1-H-imidazole hydrochloride] | > 63 µg/mL | 0.25 µg/mL | > 63 µg/mL | 0.25 µg/mL | > 63 µg/mL | 0.085% | > 0.3% | 0.5 µg/mL |
| Clc1ccc(C(Cn2ccnc2)SCSCc2ccc(Cl)cc2Cl)cc1.O=C(O)/C=C/C(=O)O (stereo not drawn) [Compound 3g, 1-[2-(4-Chlorophenyl)-2-(2,4-dichlorobenzylthiomethylthio)ethyl]-1H-imidazole hydrogen fumarate] | 63 µg/mL | 1 µg/mL | 8 µg/mL | 2 µg/mL | 63 µg/mL |  |  | 1 µg/mL |
| Cl.Clc1ccc(C(Cn2ccnc2)SCSCc2ccc(Cl)s2)c(Cl)c1 (stereo not drawn) [Compound 3i, 1-[2-(5-Chloro-2-thienylmethylthiomethylthio)-2-(2,4-dichlorophenyl)ethyl]-1H-imidazole hydrochloride] |  |  |  |  |  | 0.038% | 0.0022% |  |

The next lines start with the values.

| MIC (Streptococcus pyogenes) | MIC (Staphylococcus aureus; Strain A) | MIC (Staphylococcus aureus; Strain B) | MIC (Staphylococcus aureus; Strain C) | MIC (Streptococcus pneumoniae) | EC50, Trichophyton Skin Infection (Trichophyton quinekeanum) | EC50, Candida Vaginal Infection (Candida albicans) | MIC (S. faecalis) | Compound |
| --- | --- | --- | --- | --- | --- | --- | --- | --- |
| 63 µg/mL | 0.25 µg/mL | > 63 µg/mL | 0.25 µg/mL | 63 µg/mL | 0.078% | 0.060% | > 63 µg/mL | Clc1ccc(CSCSC(Cn2ccnc2)c2ccc(Cl)cc2Cl)c(Cl)c1.O=C(O)/C=C/C(=O)O (stereo not drawn) [Compound 3d, 1-[2-(2,4-Dichlorobenzylthiomethylthio)-2-(2,4-dichlorophenyl)ethyl]-1H-imidazole hydrogen fumarate] |
| 63 µg/mL | 1 µg/mL | > 63 µg/mL | 1 µg/mL | 63 µg/mL |  |  | 4 µg/mL | Clc1ccc(CSCSC(Cn2ccnc2)c2ccc(Cl)cc2)cc1.O=C(O)/C=C/C(=O)O (stereo not drawn) [Compound 3f, 1-[2-(4-Chlorobenzylthiomethylthio)-2-(4-chlorophenyl)ethyl]-1H-imidazole hydrogen fumarate] |
